According to ChEMBL document CHEMBL1157256, “Junceellolides J-L, 11,20-epoxybriaranes from the gorgonian coral Junceella fragilis” (2006):

How the values were obtained:
[1] = Antioxidant activity in human neutrophils assessed as inhibition of superoxide generation at 10 ug/mL by colorimetric method relative to control; format: functional; conditions: Neutrophil
[2] = tested on: Neutrophil; assay: Inhibition of FMLP/cytochalasin B-stimulated elastase release in human neutrophils at 10 ug/mL relative to control; format: functional

Structure (SMILES) | inhibition at 10 µg/mL [1] [%] | inhibition at 10 µg/mL [2] [%]
CC(=O)O[C@H]1CC/C(C)=C\[C@@H]2OC(=O)[C@H](C)[C@@]2(O)[C@@H](OC(C)=O)[C@H]2[C@@]3(CC[C@H](OC(C)=O)[C@]12C)CO3 | 22.6 | 15.4
CC(=O)O[C@H]1CC[C@@]2(CO2)[C@@H]2[C@H](OC(C)=O)[C@]3(O)[C@@H](C)C(=O)O[C@H]3[C@@H]3O[C@]3(C)CC[C@H](OC(C)=O)[C@@]12C [JUNCEELLOLIDE J] | 7.66 | 5.17
CC(=O)O[C@H]1CC/C(C)=C\[C@@H]2OC(=O)[C@H](C)[C@@]2(O)[C@@H](OC(C)=O)[C@H]2[C@]3(CC[C@H](OC(C)=O)[C@]12C)CO3 [JUNCEELLOLIDE K] | 13.9 | 15
CC(=O)O[C@H]1CC[C@]2(CO2)[C@@H]2[C@H](OC(C)=O)[C@]3(O)[C@@H](C)C(=O)O[C@H]3[C@@H](O)[C@](C)(O)CC[C@H](OC(C)=O)[C@@]12C [JUNCEELLOLIDE L] | 5.55 | 5.52
